Measurements as given in paper PMC4946153 (Cardiovascular Diabetology, 2016).
Read-outs that look alike come from different tables or passages of the source.

How the values were obtained:
[1] = test system: insulin receptor (membrane embedded, M-IR; CHO-cells overexpressing the IR); assay: Competition binding, membrane embedded IR (M-IR)
Description: Briefly, CHO-cells overexpressing the IR were collected and re-suspended in ice-cold 2.25 STM buffer (2.25 M sucrose, 5 mM Tris–HCl pH 7.4, 5 mM MgCl2, complete protease inhibitor) and disrupted using a Dounce homogenizer followed by sonication. The homogenate was overlaid with 0.8 STM buffer (0.8 M sucrose, 5 mM Tris–HCl pH 7.4, 5 mM MgCl2, complete protease inhibitor) and ultra-centrifuged for 90 min at 100,000g. Plasma membranes at the interface were collected and washed twice with phosphate buffered saline (PBS). The final pellet was re-suspended in dilution buffer (50 mM Tric-HCl pH 7.4, 5 mM MgCl2, complete protease inhibitor) and again homogenised with a Dounce homogenizer. Competition binding experiments were performed in a binding buffer (50 mM Tris–HCl, 150 mM NaCl, 0.1 % BSA, complete protease inhibitor, adjusted to pH 7.8) in 96-well microplates. In each well 2 µg isolated membrane were incubated with 0.25 mg wheat germ agglutinin polyvinyltoluene polyethylenimine scintillation proximity assay (SPA) beads. […] The radioactivity was measured at equilibrium in a microplate scintillation counter (Wallac Microbeta, Freiburg, Germany).
(§1) Results are expressed as mean values ± SEM of at least three independent experiments. For statistical analysis Graphpad Prism v5.00 (Graphpad Software, San Diego, CA, USA) was used. One-way ANOVA was performed to determine significance between conditions, with level of significance chosen at p < 0.05. In case of IC50 determinations for binding, a non-parametric Kruskal–Wallis testing was performed, again with level of significance chosen at p < 0.05.

[2] = test system: adult rat ventricular cardiomyocytes (ARVM); assay: Contractility of paced adult rat ventricular cardiomyocytes; type: cell-based; settings: 100 nM, 5 min pre-treatment, ARVM paced 1 Hz, 15 V, 0.5 ms, 37 °C; vs. control; n = 4
Description: Adult rat ventricular cardiomyocytes (ARVM) were isolated from wild-type Lewis rats (Lew/Crl) as previously described. […] Subsequently, ARVM were cultivated over-night in DMEM/F12 containing 33 µM biotin and 17 µM pantothenate (Invitrogen, Carlsbad, CA, USA). […] Furthermore, untreated ARVM or ARVM treated with 10 nM isoproterenol (Sigma-Aldrich, Munich, Germany) were immediately measured. ARVM were paced with bipolar pulses in a contractility and fluorescence system (IonOptix, Milton, MA, USA) at 15 V, 1 Hz, 0.5 ms, at 37 °C for up to 10 min and 10–14 contractions of at least 10 rod–shaped ARVM per condition were recorded. Sarcomeric shortening, shortening rate and re-lengthening rate were calculated using the IonWizard software (IonOptix, Milton, MA, USA). […] Afterwards, ARVM were treated as described above. […] Microscopic pictures were taken randomly with at least 10 pictures per condition. As a positive control 200 µM H2O2 was utilised. For each condition at least 400 cells were counted per experiment.

[3] = test system: cardiovascular outcome in patients; settings: DEVOTE interim analysis; ref [16], [17]; cited from earlier work
Description: (§2) So far, finalised clinical data is only available for IGla, whereas for IDeg the investigation is still ongoing.

[4] = test system: H9c2-E2 cells (H9c2 overexpressing the human insulin receptor); assay: Caspase 3/7 activity assay in H9c2-E2 cells; type: cell-based, rat; settings: for prevention of H2O2-induced caspase 3/7 activation (in words): 100 nM + 800 µM H2O2, 2 h
Description: (§3) The cardiac mouse cell line HL-1, a cell line derived from the AT-1 mouse atrial cardiomyocyte tumour lineage, was kindly provided by Dr. W.C. Claycomb (Louisiana State University, New Orleans, LA, USA). HL-1 cells were cultivated in Claycomb medium containing 10 % fetal calf serum (FCS), 100 µM norepinephrine and 4 mM L-glutamine (all from Sigma-Aldrich, Munich, Germany) on gelatine/fibronectin coated plates. H9c2 cells (ATCC CRL-1446), stably transfected with the human IR in our laboratory (H9c2-E2) were cultivated in DMEM, low glucose containing 10 % FCS, 1 % non–essential amino acids and 600 µg/ml G418 (all from Invitrogen, Carlsbad, CA, USA). Commercially available iPS-derived human cardiomyocytes (Cor.4U®) (Axiogenesis, Cologne, Germany) were cultured in Cor.4U® Complete Medium containing 10 % FCS on fibronectin–coated 96-well E-Plate (Acea Biosciences, San Diego, CA, USA). The medium was changed twice daily. All cells were incubated at 37 °C with 5 % CO2 in a humidified incubator.
Caspase 3/7 activity was then measured by the caspase-Glo® 3/7 assay system (Promega, Madison, Wisconsin, USA) as described in the manual. After 2 h incubation period caspase 3/7 activity was analysed by measuring the luminescence in an Infinite 200 plate reader (Tecan, Männedorf, Switzerland).

[5] = target: insulin receptor (solubilised, S-IR); assay: Competition binding, solubilised IR (S-IR)
Description: Binding on a freshly solubilised IR preparation (S-IR) was performed as previously described with some modifications. Aliquots of membranes were incubated at 4 °C for 30 min in a solubilisation buffer (20 mM HEPES–NaOH, 100 mM NaCl, 10 mM MgSO4, 1 % (w/v) n-Dodecyl-ß-D-maltoside (Sigma-Aldrich, Munich, Germany), adjusted to pH 7.8 and Complete TM Protease Inhibitor cocktail). Thereafter, ultra-centrifugation was performed at 100,000g for 30 min and 4 °C to remove non–solubilised debris. Protein concentration in the supernatant was adjusted to 0.15 mg/ml with binding buffer (100 mM HEPES–NaOH, 100 mM NaCl, 10 mM MgSO4, 0.025 % (v/v) Tween-20, adjusted to pH 7.8 and complete TM protease inhibitor cocktail). To streptavidin SPA beads (5 mg in […] binding buffer), 50 µl of an anti-IR alpha-antibody 83-7 (Abcam, Cambridge, UK) was added. After incubation for 30 min, SPA beads were once washed and finally re-suspended in 500 µl binding buffer. A solution of solubilised receptor (1 ml, 0.15 mg/ml) was added and incubated for further 60 min, before washing and resuspension in 1.5 ml.
as §1

[6] = test system: Akt(Ser473) phosphorylation in HL-1 cells; assay: Akt(Ser473) phosphorylation in HL-1 cells, Western blot; type: cell-based, mouse; settings: for Akt(Ser473) phosphorylation level: vs. Ins and other analogues
Description: as §3

[7] = test system: Akt(Thr308) phosphorylation in HL-1 cells; assay: Akt(Thr308) phosphorylation in HL-1 cells, Western blot; type: cell-based, mouse; settings: n = 3
Description: as §3

HL-1 cells = assay: 2-deoxy-D-glucose uptake in HL-1 cardiomyocytes; type: cell-based, mouse; settings: 200 nM, 60 min
Description: as §3
HL-1 cells were seeded at a density of 400,000 cells per well in a 12-well plate. […] Incorporated glucose was measured by scintillation counting of the cell lysates in a liquid scintillation counter (Beckman Coulter, Pasadena, CA, USA). Values were corrected for non-specific uptake as measured by incubation with L-[^14C]glucose (PerkinElmer, Waltham, MA, USA).

[8] = test system: Cor.4U human iPSC-derived cardiomyocytes; assay: Beating-rate by impedance measurement in human Cor.4U cells; type: cell-based; settings: 500 nM; for time to maximum beating-rate / beating-rate, area under the curve for 6 h: n = 4; for beating-rate, area under the curve for 6 h: vs. basal
Description: as §3
Cor.4U® cardiomyocytes were seeded at a density of 30,000 cells per well. From day 3 on the cells were cultured in Iscove’s Basal Medium containing 1 % GlutaMAX supplement (both Life Technologies, Carlsbad, CA, USA) and 2 µg/ml Ciprobay (Bayer, Leverkusen, Germany). […] Impedance of each well was measured with the RTCA Cardio xCELLigence Analyser (Acea Biosciences, San Diego, CA, USA) during the whole experiment. Beating-rate and cell index were analysed by RTCA cardio software (Acea Biosciences, San Diego, CA, USA).

[9] = test system: cardiovascular effects in patients; settings: ORIGIN trial, ref [15]; cited from earlier work
Description: as §2

[10] = 200 nM, 60 min, HL-1, normalised to tubulin, n = 4-5

insulin degludec [IDeg]
IR affinity (in words) [1]: very low binding affinities | IC50 ([1]; 2 µg isolated membrane, WGA-PVT-PEI SPA beads, 100 pM [125I]-human Ins, pH 7.8, 12 h at 23 °C, mean ± SEM, at least four independent experiments in quadruplicates, read-out: IR affinity IC50): 0.0196 ± 0.0011 µM | IR affinity (in words) ([1]; listed as Insulin degludec): significant lower IR affinity | IC50 fold higher compared to Ins ([1]; ratio of IC50 vs. Ins): 23.6 fold | binding affinity compared to Ins ([1]; relative to Ins): ~ 4% | increase in departure velocity (shortening rate) [2]: ~ twofold | increase in return velocity (re-lengthening rate) [2]: ~ threefold | increase in sarcomeric shortening [2]: ~ 2.5 fold | major adverse cardiovascular outcome vs IGla [3]: non-inferiority to IGla | prevention of H2O2-induced caspase 3/7 activation (in words) ([4]; H9c2-E2): same potency to prevent caspase 3/7 activation as Ins | IC50 ([5]; anti-IR antibody 83-7 SPA, 100 pM [125I]-insulin, pH 7.8, 12 h at 23 °C, mean ± SEM, at least six times on different days, quadruplicates, read-out: IR affinity IC50): 0.00312 ± 0.00042 µM | IC50 fold higher compared to Ins ([5]; ratio of IC50 vs. Ins): 5.4 fold | binding affinity relative to human insulin ([5]; this paper): ~ 18.6% | Akt(Ser473) phosphorylation level ([6]; 200 nM, 5 min, HL-1, normalised to tubulin, n = 4-5): significantly lower | Akt(Ser473) phosphorylation level ([6]; 200 nM, 10 min, HL-1, normalised to tubulin, n = 4-5): significantly lower | Akt(Ser473) phosphorylation level compared to IGla [6, 10]: still significantly lower | Akt(Ser473) phosphorylation level compared to Ins and IGlaM1 [6, 10]: similar | Akt(Ser473) phosphorylation ([6]; HL-1, 5- and 10-min incubation, compared to insulin, insulin glargine and M1): lower | Akt(Thr308) phosphorylation, kinetic ([7]; 200 nM, 5, 10 and 60 min, HL-1, same kinetic as for Akt(Ser473)): The same kinetic was observed | Akt(Thr308) phosphorylation ([7]; 200 nM, 5- and 10-min incubation, HL-1, compared to insulin, insulin glargine and M1): lower | glucose uptake, comparison between insulins (HL-1 cells): no difference | onset of action on beating-rate [8]: slower onset of action | time to maximum beating-rate [8]: 20 min | beating-rate, area under the curve for 6 h [8]: significant increase

insulin
increase in departure velocity (shortening rate) [2]: ~ twofold | increase in return velocity (re-lengthening rate) [2]: ~ threefold | increase in sarcomeric shortening [2]: ~ 2.5 fold | decrease of caspase 3/7 activity compared to H2O2 treatment alone ([4]; 100 nM insulin + 800 µM H2O2, 2 h, H9c2-E2, n = 5-6): up to 70.3% | time to maximum beating-rate [8]: 10 min | beating-rate, area under the curve for 6 h [8]: significant increase

OO [H2O2, reference compound]
induction of caspase 3/7 activity ([4]; 800 µM H2O2, 2 h, H9c2-E2, vs. basal, n = 5-6): 4.8 fold | induction of caspase 3/7 activity (in words) ([4]; H2O2 challenge, H9c2-E2): fivefold increase

insulin glargine [IGla]
increase in departure velocity (shortening rate) [2]: ~ twofold | increase in return velocity (re-lengthening rate) [2]: ~ threefold | increase in sarcomeric shortening [2]: ~ 2.5 fold | cardiovascular effects vs standard care treatment [9]: non-inferiority | prevention of H2O2-induced caspase 3/7 activation (in words) ([4]; H9c2-E2): same potency to prevent caspase 3/7 activation as Ins | glucose uptake, comparison between insulins (HL-1 cells): no difference | time to maximum beating-rate [8]: 10 min | beating-rate, area under the curve for 6 h [8]: significant increase
